Literature values in Sander's compilation of Henry's law constants (doi:10.1016/j.chemosphere.2021.129858).

assay: Henry solubility constant Hcp at 298.15 K (mol/(m3 Pa)); settings: reference: Schwardt et al. (2021); cited value

| Compound | Henry solubility constant Hcp |
| --- | --- |
| ClCC(Cl)(Cl)Cl [1,1,1,2-tetrachloroethane] | 0.005 |
| CC(Cl)(Cl)Cl [1,1,1-trichloroethane] | 0.0006 |
| ClC(Cl)C(Cl)Cl [1,1,2,2-tetrachloroethane] | 0.023 |
| ClCC(Cl)Cl [1,1,2-trichloroethane] | 0.011 |
| C=C(Cl)Cl [1,1-dichloroethene] | 0.00037 |
| CC(Cl)CCl (stereo not drawn) [1,2-dichloropropane] | 0.0037 |
| Cc1ccccc1C [1,2-dimethylbenzene] | 0.002 |
| Clc1cccc(Cl)c1 [1,3-dichlorobenzene] | 0.0031 |
| Cc1cccc(C)c1 [1,3-dimethylbenzene] | 0.0014 |
| Clc1ccc(Cl)cc1 [1,4-dichlorobenzene] | 0.0032 |
| Cc1ccc(C)cc1 [1,4-dimethylbenzene] | 0.0015 |
| Cc1ccc(Cl)cc1Cl [2,4-dichloro-1-methylbenzene] | 0.0027 |
| c1cc2c3c(cccc3c1)CC2 [acenaphthene] | 0.054 |
| c1ccc2cc3ccccc3cc2c1 [anthracene] | 0.18 |
| c1ccccc1 [benzene] | 0.0018 |
| c1ccc2c(c1)-c1cccc3cccc-2c13 [benzo[jk]fluorene] | 0.58 |
| Clc1ccccc1 [chlorobenzene] | 0.0024 |
| CCCl [chloroethane] | 0.00081 |
| C=CCl [chloroethene] | 0.00041 |
| ClCCl [dichloromethane] | 0.0039 |
| CCc1ccccc1 [ethylbenzene] | 0.0014 |
| Cc1ccccc1 [methylbenzene] | 0.0016 |
| c1ccc2ccccc2c1 [naphthalene] | 0.021 |
| c1ccc2c(c1)ccc1ccccc12 [phenanthrene] | 0.21 |
| CCCc1ccccc1 [propylbenzene] | 0.0009 |
| ClC(Cl)=C(Cl)Cl [tetrachloroethene] | 0.00057 |
| ClC(Cl)(Cl)Cl [tetrachloromethane] | 0.00034 |
| ClC=C(Cl)Cl [trichloroethene] | 0.0011 |
